Test results as given in patent US11278513B2, “Diethylamino compounds for use as local anesthetics” (Zhejiang Yuejia Pharmaceuticals Co., Ltd, priority 2017, dated 2022).
Several values for one entry are separate records, joined by “and”; a condition that tells them apart may be missing. Identical values can stand only once. Like-named read-outs stand apart in the source and are kept apart here.

What was measured:
[1] = test system: corneal reflex in rabbits; assay: Anesthetic effect on the corneal surface of New Zealand rabbits (corneal reflex inhibition, CRI); format: in vivo, New Zealand white rabbits
Description: New Zealand white rabbits were weighed. […] A single administration of 3 mg/animal (100 μL) was performed on the surface of the eyeball, and the drug concentration was 3% (m/V) in each case (wherein a Tris solution was added to aspirin to facilitate dissolution). Each group included 12 rabbits. […] An equal volume of normal saline was dropped onto the right eyeball as the self-negative control. […] After 30 minutes of administration, it was tested every 15 minutes. After the corneal reflex returned to the pre-dose level, the test was stopped. By comparing the corneal reflex on the administration side and the self-negative control side, the effect of the compound on the corneal reflex after administration was judged. Corneal reflex inhibition (CRI) was used to evaluate the effect of drugs on corneal reflex. CRI was calculated as follows: […]

Nav1.7 [2] = target: T1, Nav1.7 (Homo sapiens, UniProt Q15858); assay: Inhibition of Nav1.7 channel current in CHO cells stably expressing Nav1.7; format: cell-based; details: CHO cells stably expressing Nav1.7, channel current
T1 construct: expressed in transfected cells

Nav1.8 [3] = target: T2, Nav1.8 (Homo sapiens, UniProt Q9Y5Y9); assay: Inhibition of Nav1.8 channel current in HEK cells stably expressing Nav1.8; format: cell-based; details: HEK cells stably expressing Nav1.8, channel current
T2 construct: expressed in transfected cells

[4] = test system: rat dorsal root ganglion (DRG) neurons; assay: Patch clamp inhibition of action potential of acutely isolated rat DRG neurons; format: cell-based; details: DRG neuron
Text: In addition, the inventor used acutely isolated rat dorsal root ganglion (DRG) neurons as the experimental object, using patch clamp technology to investigate the inhibition effect of the compound represented by Formula 1 of the present invention on the neuronal excitability of the dorsal root ganglion.

[5] = Physical and chemical properties (repose angle, solubility, acidity, dissociation constant); format: physicochemical
[6] = Stability of aqueous solution at 2-8° C. (HPLC); format: physicochemical; details: for Main Drug, %: aqueous solution 5 g in 50 mL sterile water; for Main Drug, % / Salicylic acid, % (impurity) / Salicylic acid-(2-diethylaminoethyl ester) hydrochloride, % (impurity) / Acetylsalicylic acid, % (impurity): 2-8° C.; for Salicylic acid, % (impurity) / Salicylic acid-(2-diethylaminoethyl ester) hydrochloride, % (impurity) / Acetylsalicylic acid, % (impurity): aqueous solution
Nav1.7 [7] = target: T1, Nav1.7; details: reported by a literature; cited from earlier work
Nav1.8 [8] = target: T2, Nav1.8; details: reported by a literature; cited from earlier work
[9] = 3% (m/V), 100 μL on left eyeball, 0 min, mean ± SD
[10] = 3% (m/V), 100 μL on left eyeball, 10 min after administration, mean ± SD
[11] = 3% (m/V), 100 μL on left eyeball, 15 min after administration, mean ± SD
[12] = 3% (m/V), 100 μL on left eyeball, 20 min after administration, mean ± SD
[13] = 3% (m/V), 100 μL on left eyeball, 25 min after administration, mean ± SD
[14] = 3% (m/V), 100 μL on left eyeball, 30 min after administration, mean ± SD
[15] = 3% (m/V), 100 μL on left eyeball, 45 min after administration, mean ± SD
[16] = 3% (m/V), 100 μL on left eyeball, 60 min after administration, mean ± SD
[17] = ophthalmic administration, 3% (m/V), rabbits
[18] = 3% (m/V), 100 μL on left eyeball, 5 min after administration, mean ± SD

T2 sequence (Q9Y5Y9 whole entry): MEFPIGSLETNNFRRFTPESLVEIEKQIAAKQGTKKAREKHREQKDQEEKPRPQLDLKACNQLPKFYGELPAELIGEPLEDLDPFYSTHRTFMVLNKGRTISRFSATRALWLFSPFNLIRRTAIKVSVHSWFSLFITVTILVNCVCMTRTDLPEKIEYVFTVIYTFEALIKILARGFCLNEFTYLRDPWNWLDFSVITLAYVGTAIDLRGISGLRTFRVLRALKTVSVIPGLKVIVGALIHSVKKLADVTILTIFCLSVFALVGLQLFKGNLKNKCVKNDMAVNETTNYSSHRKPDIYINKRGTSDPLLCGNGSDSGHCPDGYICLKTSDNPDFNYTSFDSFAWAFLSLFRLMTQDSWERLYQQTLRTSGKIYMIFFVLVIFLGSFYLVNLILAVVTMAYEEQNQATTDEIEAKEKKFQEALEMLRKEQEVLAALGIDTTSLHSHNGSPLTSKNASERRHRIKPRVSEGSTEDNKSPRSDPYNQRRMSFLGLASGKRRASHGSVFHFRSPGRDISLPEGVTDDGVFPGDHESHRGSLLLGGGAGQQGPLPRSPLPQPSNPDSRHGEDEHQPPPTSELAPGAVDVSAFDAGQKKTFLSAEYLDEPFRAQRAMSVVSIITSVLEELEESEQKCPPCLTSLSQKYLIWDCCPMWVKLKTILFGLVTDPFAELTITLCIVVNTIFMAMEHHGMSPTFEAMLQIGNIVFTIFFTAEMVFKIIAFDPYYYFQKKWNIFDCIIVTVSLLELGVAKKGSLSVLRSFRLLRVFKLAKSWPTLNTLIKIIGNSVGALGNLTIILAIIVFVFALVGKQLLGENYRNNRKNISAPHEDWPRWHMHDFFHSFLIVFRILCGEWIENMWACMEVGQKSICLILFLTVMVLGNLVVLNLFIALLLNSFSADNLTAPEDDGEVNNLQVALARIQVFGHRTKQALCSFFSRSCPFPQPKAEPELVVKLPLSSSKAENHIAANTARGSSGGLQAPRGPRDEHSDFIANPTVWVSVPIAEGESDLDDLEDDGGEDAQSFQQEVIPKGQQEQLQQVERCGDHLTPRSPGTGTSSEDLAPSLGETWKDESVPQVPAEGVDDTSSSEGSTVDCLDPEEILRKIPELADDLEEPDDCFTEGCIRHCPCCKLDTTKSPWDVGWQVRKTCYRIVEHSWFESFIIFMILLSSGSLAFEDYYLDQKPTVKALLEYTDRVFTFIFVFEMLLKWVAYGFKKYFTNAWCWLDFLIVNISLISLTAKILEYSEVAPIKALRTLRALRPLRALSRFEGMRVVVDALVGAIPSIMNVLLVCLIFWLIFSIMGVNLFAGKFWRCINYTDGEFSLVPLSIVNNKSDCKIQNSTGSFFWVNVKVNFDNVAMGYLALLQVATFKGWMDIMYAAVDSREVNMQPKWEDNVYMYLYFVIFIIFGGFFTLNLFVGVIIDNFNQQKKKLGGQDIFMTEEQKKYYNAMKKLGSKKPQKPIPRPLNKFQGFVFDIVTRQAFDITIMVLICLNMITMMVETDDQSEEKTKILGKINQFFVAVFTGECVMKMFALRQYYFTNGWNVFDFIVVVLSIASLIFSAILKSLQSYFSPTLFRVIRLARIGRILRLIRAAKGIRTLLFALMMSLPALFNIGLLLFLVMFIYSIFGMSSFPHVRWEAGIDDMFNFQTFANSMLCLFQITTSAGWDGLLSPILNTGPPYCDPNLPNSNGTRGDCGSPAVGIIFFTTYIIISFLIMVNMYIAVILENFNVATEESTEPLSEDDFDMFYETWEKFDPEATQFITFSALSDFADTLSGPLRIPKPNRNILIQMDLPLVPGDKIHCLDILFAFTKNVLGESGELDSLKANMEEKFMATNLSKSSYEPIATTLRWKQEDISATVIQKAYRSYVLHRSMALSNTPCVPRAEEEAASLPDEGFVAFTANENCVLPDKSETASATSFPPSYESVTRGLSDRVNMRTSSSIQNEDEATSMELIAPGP
T1 sequence (Q15858 whole entry): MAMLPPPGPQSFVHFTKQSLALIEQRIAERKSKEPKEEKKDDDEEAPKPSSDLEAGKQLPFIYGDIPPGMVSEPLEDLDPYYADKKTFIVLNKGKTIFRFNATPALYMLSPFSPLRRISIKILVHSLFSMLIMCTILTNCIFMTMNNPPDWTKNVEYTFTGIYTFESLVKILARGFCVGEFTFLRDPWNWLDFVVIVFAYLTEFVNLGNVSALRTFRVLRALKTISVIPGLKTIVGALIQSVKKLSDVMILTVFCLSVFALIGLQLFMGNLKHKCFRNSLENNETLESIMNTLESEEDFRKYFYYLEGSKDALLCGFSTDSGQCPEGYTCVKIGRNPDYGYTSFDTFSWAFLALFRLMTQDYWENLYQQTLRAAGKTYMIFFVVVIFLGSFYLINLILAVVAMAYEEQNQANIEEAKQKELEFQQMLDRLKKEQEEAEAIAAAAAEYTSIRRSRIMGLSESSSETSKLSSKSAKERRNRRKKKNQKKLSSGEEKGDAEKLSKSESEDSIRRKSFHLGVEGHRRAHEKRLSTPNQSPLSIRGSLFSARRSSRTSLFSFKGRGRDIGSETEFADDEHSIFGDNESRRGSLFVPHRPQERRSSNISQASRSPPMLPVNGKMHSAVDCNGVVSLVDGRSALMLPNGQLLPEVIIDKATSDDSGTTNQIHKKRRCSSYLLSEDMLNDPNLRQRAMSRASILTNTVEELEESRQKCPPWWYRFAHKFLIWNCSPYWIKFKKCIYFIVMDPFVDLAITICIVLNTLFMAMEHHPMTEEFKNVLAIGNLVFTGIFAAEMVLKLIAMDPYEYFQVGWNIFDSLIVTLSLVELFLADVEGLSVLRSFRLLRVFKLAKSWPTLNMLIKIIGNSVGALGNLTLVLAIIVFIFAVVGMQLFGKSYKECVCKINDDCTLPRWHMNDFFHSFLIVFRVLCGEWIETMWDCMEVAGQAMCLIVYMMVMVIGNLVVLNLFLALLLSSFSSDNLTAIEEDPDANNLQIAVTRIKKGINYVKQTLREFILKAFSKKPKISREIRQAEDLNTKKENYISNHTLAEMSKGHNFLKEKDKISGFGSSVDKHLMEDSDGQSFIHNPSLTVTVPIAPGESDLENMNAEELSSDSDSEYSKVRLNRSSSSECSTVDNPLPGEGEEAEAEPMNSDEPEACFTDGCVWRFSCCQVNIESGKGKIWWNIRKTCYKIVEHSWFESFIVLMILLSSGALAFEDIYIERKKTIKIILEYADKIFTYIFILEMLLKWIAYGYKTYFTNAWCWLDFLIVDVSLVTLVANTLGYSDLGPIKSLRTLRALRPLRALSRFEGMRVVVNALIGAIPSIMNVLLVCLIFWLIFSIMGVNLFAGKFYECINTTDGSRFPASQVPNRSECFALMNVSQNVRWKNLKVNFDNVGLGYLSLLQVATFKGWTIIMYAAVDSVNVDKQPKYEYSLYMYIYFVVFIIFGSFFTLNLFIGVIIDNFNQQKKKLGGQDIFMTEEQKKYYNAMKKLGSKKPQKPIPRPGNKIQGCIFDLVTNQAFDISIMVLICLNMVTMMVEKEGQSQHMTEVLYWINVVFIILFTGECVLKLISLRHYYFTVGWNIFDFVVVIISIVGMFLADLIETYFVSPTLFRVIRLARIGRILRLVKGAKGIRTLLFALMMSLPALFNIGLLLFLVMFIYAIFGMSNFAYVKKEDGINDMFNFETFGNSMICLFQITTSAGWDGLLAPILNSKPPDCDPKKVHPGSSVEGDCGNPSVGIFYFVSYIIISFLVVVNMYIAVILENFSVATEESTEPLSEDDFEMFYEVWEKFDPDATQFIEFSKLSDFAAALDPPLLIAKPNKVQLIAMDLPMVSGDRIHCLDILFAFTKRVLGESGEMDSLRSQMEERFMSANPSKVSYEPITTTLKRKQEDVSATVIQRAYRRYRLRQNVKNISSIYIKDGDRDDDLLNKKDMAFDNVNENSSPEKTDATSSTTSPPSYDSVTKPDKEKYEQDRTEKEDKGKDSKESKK

O=C([O-])c1ccccc1O.[Na+] [Sodium salicylate, sodium salicylate]
CRI (%) ([1]; rabbit, in vivo): 0.0±0.0% | local anesthetic effect (in words) ([1]; rabbit, in vivo): no local anesthetic effect at all

CCN(CC)CCOC(=O)c1ccccc1OC(C)=O.Cl [2-(diethylamino)-ethyl-2-acetoxybenzoate hydrochloride]
IC50 (Nav1.7 [2]): 17.7 µM | IC50 (Nav1.8 [3]): 74.6 µM | IC50 [4]: 34.6 µM | Dissociation constant [5]: 8.82 | Repose angle [5]: 42° | Acidity: pH value of the 2% aqueous solution ([5]; 2% aqueous solution at 25 ± 0.5° C.): product at 25 ± 0.5 °C is 4.0-6.0 | Solubility in acetone ([5]; acetone): slightly soluble | Solubility in ether ([5]; ether): insoluble | Solubility in ethyl acetate ([5]; ethyl acetate): insoluble | Solubility in water ([5]; water): extremely soluble | Main Drug, % ([6]; month 0): 99.48% | Main Drug, % ([6]; month 0.5): 99.32% | Main Drug, % ([6]; month 1): 97.59% | Main Drug, % ([6]; month 2): 94.86% | Main Drug, % ([6]; month 3, hydrochloride): 86% and 86.55% | Salicylic acid, % (impurity) ([6]; month 0): 0.0028% | Salicylic acid-(2-diethylaminoethyl ester) hydrochloride, % (impurity) ([6]; month 0): 0.51% | Salicylic acid, % (impurity) ([6]; month 0.5): 0.0035% | Salicylic acid-(2-diethylaminoethyl ester) hydrochloride, % (impurity) ([6]; month 0.5): 0.67% | Acetylsalicylic acid, % (impurity) ([6]; month 1): 0.018% | Salicylic acid, % (impurity) ([6]; month 1): 0.0044% | Salicylic acid-(2-diethylaminoethyl ester) hydrochloride, % (impurity) ([6]; month 1): 2.38% | Acetylsalicylic acid, % (impurity) ([6]; month 2): 0.033% | Salicylic acid, % (impurity) ([6]; month 2): 0.012% | Salicylic acid-(2-diethylaminoethyl ester) hydrochloride, % (impurity) ([6]; month 2): 5.09% | Acetylsalicylic acid, % (impurity) ([6]; month 3): 0.042% | Salicylic acid, % (impurity) ([6]; month 3): 0.049% | stability in solution (in words) ([6]; solution state): did not meet the general requirements for chemical drug stability | CRI (%) [1, 9]: 0.0 ± 0.0% | CRI (%) ([1]; 3% (m/V), 100 μL on left eyeball, 5 min after administration; mean ± SD; hydrochloride)): 99.1 ± 2.0% | CRI (%) [1, 10]: 97.2 ± 2.9% | CRI (%) [1, 11]: 96.7 ± 6.5% | CRI (%) [1, 12]: 86.7 ± 9.8% | CRI (%) [1, 13]: 77.5 ± 2.9% | CRI (%) [1, 14]: 57.5 ± 12.2% | CRI (%) [1, 15]: 12.2 ± 12.4% | CRI (%) [1, 16]: 0.0 ± 0.0% | local anesthetic effect (in words) [1, 17]: had a local anesthesia effect for ophthalmic administration, with quick onset

CC(=O)Oc1ccccc1C(=O)O [Aspirin, aspirin]
CRI (%) [1, 9]: 0.0 ± 0.0% | CRI (%) [1, 18]: 0.0 ± 0.0% | CRI (%) [1, 10]: 0.0 ± 0.0% | CRI (%) [1, 11]: 0.0 ± 0.0% | CRI (%) [1, 12]: 0.0 ± 0.0% | CRI (%) [1, 13]: 0.0 ± 0.0% | CRI (%) [1, 14]: 0.0 ± 0.0% | CRI (%) [1, 15]: 0.0 ± 0.0% | CRI (%) [1, 16]: 0.0 ± 0.0% | CRI (%) ([1]; no time point stated): 0.0±0.0% | local anesthetic effect (in words) [1, 17]: no local anesthetic effect at all

CCN(CC)CC(=O)Nc1c(C)cccc1C [Lidocaine, lidocaine]
IC50 [4]: 37.1 µM | CRI (%) [1, 9]: 0.0 ± 0.0% | CRI (%) [1, 18]: 98.3 ± 3.9% | CRI (%) [1, 10]: 95.0 ± 10.0% | CRI (%) [1, 11]: 91.7 ± 15.3% | CRI (%) [1, 12]: 86.7 ± 21.0% | CRI (%) [1, 13]: 82.5 ± 27.3% | CRI (%) [1, 14]: 70.0 ± 27.3% | CRI (%) [1, 15]: 32.5 ± 30.5% | CRI (%) [1, 16]: 0.0 ± 0.0% | IC50 (Nav1.7 [7]): 450 µM | IC50 (Nav1.8 [8]): 104 µM
